Experiment [1] relates to Saccharomyces cerevisiae (ATCC 834). The experiment in a line: Example 1 preliminary screen of antimicrobial efficacy, yeast. The class given is cell-based. As to conditions: pH 9, 60 s, 50 °C. The protocol: (§1) Example 1 was a preliminary screen of various compositions for antimicrobial efficacy against acetobacter and lactobacillus and yeast. For this example, the compositions were applied for 1 minute at 50° C. or 60° C. to Acetobacter aceti (ATCC 15973), Lactobacillus brevis (ATCC 14869), or Saccharomyces cerevisiae (ATCC 834).

Experiment [2] deals with Acetobacter aceti (ATCC 15973). The experiment is described as follows: Example 1 preliminary screen of antimicrobial efficacy, Acetobacter. Type of experiment: cell-based. The following applies: 60 s, 50 °C. As for the experimental part: as §1
In experiment [3] the test system is Lactobacillus brevis (ATCC 14869). The experiment is described as follows: Example 1 preliminary screen of antimicrobial efficacy, Lactobacillus. The class given is cell-based. From the text: Example 1 was a preliminary screen of various compositions for antimicrobial efficacy against acetobacter and lactobacillus and yeast. […]
Experiment [4] has the same test system. The experiment is described as follows: Example 3 suspension test of nonanoic acid alone, Lactobacillus. Type of experiment: cell-based. The following applies: for % reduction / Log Reduction: Nonanoic Acid 200 ppm. As for the experimental part:
(§2) Example 3 tested concentrations of nonanoic acid alone for antimicrobial efficacy against acetobacter and lactobacillus. For this example, the compositions were applied for the recorded time and temperature to suspensions of Acetobacter aceti (ATCC 15973), or Lactobacillus brevis (ATCC 14869). After the period of time, a neutralizer was added to quench the reaction. The remaining solution was plated and counted for colonies and compared to the untreated control. The log reduction was recorded in the table below. The information in the column labeled “solution” describes the solution environment that was used for a test. For example, the solution may have included 0.5% or 1% sodium bicarbonate. The solution may have included multi-day old used clean-in-place solution from a plant that included sodium carbonate (labeled “used CIP”). The pH of the solution was adjusted with sodium carbonate.

Experiment [5] has as its system Acetobacter aceti (ATCC 15973). The experiment is described as follows: Example 3 suspension test of nonanoic acid alone, Acetobacter. The class given is cell-based. As to conditions: for % reduction / Log Reduction: Nonanoic Acid 200 ppm, pH 9. The protocol: as §2
For experiment [6] the following is noted: known antimicrobial agents; cited from earlier work.
The mark [7] stands for this setting: pH 8.5, 60 s, 50 °C, 1% sodium bicarbonate.
The mark [8] stands for this setting: pH 8.5, 600 s, 50 °C, 1% sodium bicarbonate.
The mark [9] stands for this setting: pH 8.5, 2 days, 20 °C, used CIP.
[10] abbreviates: pH 8.7, 60 s, 45 °C, 0.5% sodium bicarbonate.
[11] abbreviates: pH 8.7, 120 s, 45 °C, 0.5% sodium bicarbonate.
The mark [12] stands for this setting: pH 8.7, 300 s, 45 °C, 0.5% sodium bicarbonate.
[13] abbreviates: pH 8.7, 600 s, 45 °C, 0.5% sodium bicarbonate.
Where [14] appears, read: pH 9, 60 s, 50 °C, 1% sodium bicarbonate.
Setting [15] is: pH 10.5, 60 s, 50 °C, 1% sodium bicarbonate.
The mark [16] stands for this setting: pH 10.5, 600 s, 50 °C, used CIP.
The mark [17] stands for this setting: pH not adjusted, 60 s, 45 °C, 0.5% sodium bicarbonate.
Where [18] appears, read: pH not adjusted, 120 s, 45 °C, 0.5% sodium bicarbonate.
Setting [19] is: pH not adjusted, 300 s, 45 °C, 0.5% sodium bicarbonate.
The mark [20] stands for this setting: pH not adjusted, 600 s, 45 °C, 0.5% sodium bicarbonate.
The mark [21] stands for this setting: various times, temperatures, pHs, and solution conditions (Table 3).
[22] abbreviates: 60 s, 50 °C, 1% sodium bicarbonate.

Where “and” joins values, the source holds several entries; their conditions need not be identical. Equal values may be shown once.

Consider `CCCCCCCCCCCC(=O)N[C@@H](CCCN=C(N)N)C(=O)OCC` [Ethyl Lauroyl Arginate, ethyl lauroyl arginate], for which the “% reduction” value is 99.888% in experiment [1] (Ethyl Lauroyl Arginate 5 ppm); 99.891% in experiment [2] (Ethyl Lauroyl Arginate 2.5 ppm, pH 9); 99.981% and 99.922% in experiment [2] (Ethyl Lauroyl Arginate 5 ppm, pH 9); 32.759% in experiment [2] (Ethyl Lauroyl Arginate 25 ppm, pH 4); 99.808% in experiment [2] (Ethyl Lauroyl Arginate 25 ppm, pH 9); 99.241% in experiment [2] (Ethyl Lauroyl Arginate 25 ppm, pH 10). For the same molecule, the “% reduction” value is on record as 98.491% in experiment [2] (Ethyl Lauroyl Arginate 50 ppm, pH 4); 99.763% in experiment [2] (Ethyl Lauroyl Arginate 50 ppm, pH 10); 99.999% in experiment [2] (Ethyl Lauroyl Arginate 200 ppm, pH 7); 99.998% in experiment [2] (Ethyl Lauroyl Arginate 200 ppm, pH 10); 98.844% in experiment [3] (Ethyl Lauroyl Arginate 5 ppm, pH 4, 60 s, 50 °C); 99.999% in experiment [3] (Ethyl Lauroyl Arginate 5 ppm, pH 9, 60 s, 50 °C). In addition, the “% reduction” value was 99.999% in experiment [3] (Ethyl Lauroyl Arginate 25 ppm, pH 4, 50 s, 60 °C); 100.000% in experiment [3] (Ethyl Lauroyl Arginate 25 ppm, pH 10, 50 s, 60 °C); 100.000% in experiment [3] (Ethyl Lauroyl Arginate 50 ppm, pH 4, 50 s, 60 °C); 100.000% in experiment [3] (Ethyl Lauroyl Arginate 50 ppm, pH 10, 50 s, 60 °C).
Regarding `CCCCCCCCC(=O)O` [Nonanoic Acid, nonanoic acid], the “% reduction” value in experiment [4] (setting [7]) worked out at 99.636%; in experiment [4] (setting [8]) it was 100.000%; in experiment [4] (pH 8.5, 600 s, 50 °C, used CIP), 100.000%; in experiment [4] (setting [9]), 100.000%; in experiment [4] (setting [10]), 99.900%; in experiment [4] (setting [11]), 100.000%. The “% reduction” value is 100.000% in experiment [4] (setting [12]); 100.000% in experiment [4] (setting [13]); 99.736% in experiment [4] (setting [14]); 100.000% in experiment [4] (pH 9, 600 s, 50 °C, used CIP); 100.000% in experiment [4] (pH 9, 2 days, 20 °C, used CIP); 100.000% in experiment [4] (setting [15]). In addition, the “% reduction” value in experiment [4] (setting [16]) was found to be 100.000%; in experiment [4] (setting [17]) it was 99.905%; in experiment [4] (setting [18]), 100.000%; in experiment [4] (setting [19]), 100.000%; in experiment [4] (setting [20]) it was 100.000%; in experiment [1] (Nonanoic Acid 125 ppm), 99.954%. Moreover, the “% reduction” value is on record as 99.998% in experiment [2] (Nonanoic Acid 125 ppm, pH 9); 100.000% in experiment [3] (Nonanoic Acid 125 ppm, pH 4, 60 s, 50 °C); 96.125% in experiment [3] (Nonanoic Acid 125 ppm, pH 9, 60 s, 50 °C); 99.993% in experiment [5] (setting [22]); 97.846% in experiment [5] (2 days, 20 °C, used CIP). The “Log Reduction” value in experiment [4] (setting [7]) is recorded as 2.44; in experiment [4] (setting [8]), 6.90; in experiment [4] (pH 8.5, 600 s, 50 °C, used CIP) it was 7.04; in experiment [4] (setting [9]), 7.20; in experiment [4] (setting [10]), 3.00; in experiment [4] (setting [11]), 7.64. The “Log Reduction” value in experiment [4] (setting [12]) is 7.64; in experiment [4] (setting [13]) it was 7.64; in experiment [4] (setting [14]), 2.58; in experiment [4] (pH 9, 600 s, 50 °C, used CIP), 7.04; in experiment [4] (pH 9, 2 days, 20 °C, used CIP), 7.20; in experiment [4] (setting [15]), 7.04. Moreover, the “Log Reduction” value is on record as 7.04 in experiment [4] (setting [16]); 3.02 in experiment [4] (setting [17]); 6.34 in experiment [4] (setting [18]); 7.64 in experiment [4] (setting [19]); 7.64 in experiment [4] (setting [20]); 4.18 in experiment [5] (setting [22]). Moreover, in experiment [5] (2 days, 20 °C, used CIP), the “Log Reduction” value is reported as 1.67. The “reducing gram positive bacteria” value in experiment [4] (setting [21]) is recorded as “effective”. For the same molecule, the “reducing gram negative bacteria” value in experiment [5] (setting [21]) is on record as “effective”.
`CCCCCCCC(=O)O` [Octanoic Acid, octanoic acid]: the “% reduction” value in experiment [1] (Octanoic Acid 125 ppm) is 100.000%; in experiment [2] (Octanoic Acid 100 ppm, pH 4), 0.000%; in experiment [2] (Octanoic Acid 100 ppm, pH 5), 54.967%; in experiment [2] (Octanoic Acid 100 ppm, pH 9), 99.999% and 99.998%; in experiment [2] (Octanoic Acid 125 ppm, pH 9), 99.998%; in experiment [2] (Octanoic Acid 150 ppm, pH 4), 86.207%. In addition, the “% reduction” value was 99.998% and 99.996% in experiment [2] (Octanoic Acid 200 ppm, pH 4); 99.993% in experiment [2] (Octanoic Acid 200 ppm, pH 7); 100.000% in experiment [3] (Octanoic Acid 125 ppm, pH 4, 60 s, 50 °C); 97.813% in experiment [3] (Octanoic Acid 125 ppm, pH 9, 60 s, 50 °C); 100.000% in experiment [3] (Octanoic Acid 150 ppm, pH 4, 50 s, 60 °C); 100.000% in experiment [3] (Octanoic Acid 200 ppm, pH 4, 50 s, 60 °C).
As to `OO` [hydrogen peroxide], the “Typical Antimicrobial pH Range” value in experiment [6] is under 5.
Take `CC(=O)OO` [peracetic acid]: the “Typical Antimicrobial pH Range” value in experiment [6] is under 7.
Consider `CCCCCCCC(=O)OO` [peroctanoic acid], for which, in experiment [6], the “Typical Antimicrobial pH Range” value is on record as under 5.
Regarding acidified sodium chlorite, in experiment [6], the “Typical Antimicrobial pH Range” value is 2.5-4.
